Assay [1] relates to OVX mice. Description: OVX-induced bone loss model (and sham-operated mice). It counts as in vivo, mouse. To be noted: in vivo, OVX-induced bone loss model. The text has this: Fig. 7 Kp-10 ameliorated OVX-induced bone loss. a, c Representative micro-CT images of femoral trabecular bone (a) and cortical bone (c). Female C57 mice treated with vehicle (Sham) or 50 nmol/kg (DSS)*6-Kp-10, ovariectomized mice (OVX) treated with vehicle or 50nmol/kg (DSS)*6-Kp-10 twice one week by intraperitoneal injection (n = 6 per group). Scale bar, 500 µm. b, d Parameter analysis of femurs from the mice above. BMD bone mineral density, BV/TV bone volume as a fraction of total bone volume, Tb.Th trabecular thickness, Tb.N trabecular number, Tb.Sp trabecular separation. e Representative TRAP staining images of femurs from Fig. 7a. f Histomorphometry analysis of the femurs from Fig. 7a. Oc.S/BS osteoclast surface per bone surface, N.Oc/B.Pm osteoclast bone surface density, ES/BS eroded surface per bone surface. Data represent means ± SEM. P values were determined by one-way ANOVA analysis (b, d, f). Representative results were obtained from at least three independent experiments. Source data are provided as a Source Data file.
3D micro-CT analyses were performed as previously described. We scanned the femur using in vitro X-ray microtomography (Skyscan 1272, Bruker micro CT) at a pixel size of 9 µm, and analyzed the results according to the manufacturer’s instructions. Region-of-interest (ROI) was defined from 10 to 110 image slices, where the growth plate slice was defined as 0 mm. The contrast was defined from 68–255; 3D analysis, BMD, and 3D models were analyzed using CTAn software (Bruker micro CT). 3D models were adjusted in CT Vox software (Bruker micro CT).
Bone tissue was removed of excess tissues and fixed with 4% formalin, decalcified with 0.5 M EDTA for 10–14 days, embedded with paraffin, sectioned, and stained using the TRAP staining kit (Sigma-Aldrich, 387A-1KT). The third lumbar spine vertebrae (L3) were fixed with 4% formalin, sectioned, and subjected to Von Kossa staining as described previously[60],[61]. For double calcian labeling assay, 4−5 week-old mice were administrated calcian (30 μg/mL) through intraperitoneal injection for the first time and the second time after 10 days. The third lumbar spine vertebrae (L3) were fixed with 4% formalin, sectioned, and subjected to Goldner’s Masson trichrome staining, or acquisition of fluorescence images. Histomorphometric measurements were made using the OsteoMeasure Analysis System (Osteometrics, Atlanta, GA, USA) according to standard criteria.
For animal studies in vivo, mice were randomized for weight. For the OVX-induced bone loss model, 2-month-old female C57BL/6 mice were sham-operated (sham) or ovariectomized (OVX) and randomly divided into indicated groups. Vehicle, Kp-10 or (DSS)*6-Kp-10 was injected into the tail vein twice per week. After two months of treatment, the femurs and the L3 lumbrae were isolated for micro-CT or histomorphometric analysis. 3D micro-CT analyses were performed according to a standard protocol. BMD and bone volume were analyzed by CT-analysis software (CTAn, Bruker micro CT, Kontich, Belgium) and images were reconstituted by CT-volume software (CTvol, skyscan, CTAn, Bruker micro CT, Kontich, Belgium).
Supplementary Fig. 16 a Representative image of Von Kossa staining of sham-operated female C57 mice treated with vehicle (Sham, n=4), ovariectomized mice (OVX, n=3), and OVX mice treatment with 1 nmol/kg Kp-10 (n=6),10 nmol/kg Kp-10 (n=6),1 nmol/kg (DSS)*6-Kp-10 (n=5) or 10 nmol/kg (DSS)*6-Kp-10 (n=6) twice one week by intraperitoneal injection for two months. […]

Assay [2] relates to Src (Y416). The assay is described as follows: IB of Src (Y416) phosphorylation in BMMs / osteoclasts. It counts as cell-based, mouse. To be noted: for Src phosphorylation: Kp-10 20 min; for phosphorylation of Src (Y416): indicated dose of Kp-10 for 1 h; for phosphorylation of Src: Kp-10 1 h. How it is done:
Fig. 1 Kp-10 /Gpr54 governs osteoclasts formation and bone resorption mainly via suppression of Src phosphorylation. a–d IB analysis of whole cell lysates (WCL) derived from BMMs isolated from eight-week-old wild-type (WT) and Gpr54^−/− mice. BMMs were starved in serum-free α-MEM for 4 h and then treated with 100 ng/mL RANKL for different time (a) and quantification of protein levels (b), incubated with indicated dose of Kp-10 for 1 h (c) and quantification of protein levels (d). e–i BMMs isolated from eight-week-old WT and Gpr54^−/− mice were stimulated with M-CSF (10 ng/ml) and RANKL (50 ng/ml) for 5–7 days. Representative TRAP staining images are shown. Scale bar, 250 µm (e) and the number of osteoclasts/well was counted (f). Phalloidin staining of F-actin ring is shown. Scale bar, 250 µm, 50 µm (g), the area (h) and nuclei numbers (i) per actin ring were counted. j, k BMMs isolated from eight-week-old WT and Gpr54^−/− mice were cultured in vitro on dentin slices, and after incubation with M-CSF (10 ng/ml) and RANKL (50 ng/ml) for 5–7 days, the pits formed by osteoclast absorption activity were scanned by confocal microscopy (x, y, and z sections). Scale bar, 125 µm (j), and pits depth were quantified by confocal microscopy (k). Data represent means ± SEM. P values were determined by two-way ANOVA analysis (b), one-way ANOVA analysis (d, f, k), or two-tailed Student’s t-test (h, i), Representative results were obtained from at least three independent experiments. Source data are provided as a Source Data file.
Whole-cell proteins were extracted using 1x RIPA buffer (25 mM Tris, pH7.5, 150 mM NaCl, 0.5% Sodium deoxycholate, 1% Triton-X-100) supplemented with protease inhibitors (Complete Mini, Roche) and phosphatase inhibitors (phosphatase inhibitor cocktail set I and II, Calbiochem). Immunoprecipitation and immunoblotting with indicated antibodies were performed as described in Supplementary Table 1. Image Jsoftware (V1.52) was used for quantification analysis. Uncropped and unprocessed blots are presented in the Supplementary Information file.
Supplementary Fig. 1 a, b IB analysis of whole cell lysates (WCL) derived from BMMs isolated from eight-week-old wild-type (WT) and Gpr54 ^-/- mice. BMMs were starved in serum-free α-MEM for 4 hours and then treated with indicated doses of Kp-10 for 1 hour and followed by the addition of 50 ng/mL M-CSF, 100 ng/mL RANKL for another 30 minutes (a) and quantification of protein levels (b). c, d Elisa assay showing Kisspeptins derived from the process of osteoblast or osteoclast differentiation in vitro. Kisspeptins normalization was based on the same number of MSCs, BMMs which were seeded on the plates before differentiation stimulation (c), and serum Kisspeptins from Sham (n=8) and OVX (n=7) mice (d). Representative results were obtained from at least three independent experiments. Error bars are ± SEM. P-values were determined by one-way ANOVA analysis (a) or two-tailed Student’s t-test (b). *P <0.05, ***P <0.001, ****P <0.0001. Representative results were obtained from at least three independent experiments. Source data are provided as a Source Data file.

This is an account of results in paper PMC10861593, “Kisspeptin-10 binding to Gpr54 in osteoclasts prevents bone loss by activating Dusp18-mediated dephosphorylation of Src” (Nature Communications, 2024).

As for Kisspeptin-10 [Kp-10], the “bone loss / bone protection in vivo (summary statement)” value in assay [1] is “abrogated bone loss by suppressing osteoclast activity in vivo”. The “Src phosphorylation, 10 nM” value in assay [2] (10 nM Kp-10) was “more obviously blocked”. Moreover, the Src phosphorylation entry in assay [2] (Dusp18-depleted BMMs) is given as “failed to do so”; in assay [2] (WT pre-osteoclasts/BMMs (Dusp18 experiment)), “blocked Src phosphorylation”. For the same substance, the figures for the “phosphorylation of Src (Y416)” value in assay [2] (Gpr54 WT osteoclasts/BMMs) and in assay [2] (Gpr54 knockout osteoclasts/BMMs) were “effectively reduced the phosphorylation of Src (Y416)” and “failed to inhibit Src (Y416) phosphorylation”, respectively. The “phosphorylation of Src” value in assay [2] (Gq/11 KO BMMs) is “failed to have a significant effect”; in assay [2] (WT BMMs (Gq/11 experiment)), “inhibited the phosphorylation of Src”.
